Molecular target: Glucagon receptor (Homo sapiens, UniProt P47871)
Experiment: Binding Assay: The binding assay was performed by a filtration method in a 384 well format. Membranes at a final protein concentration of 6 μg/well were incubated with 125I-glucagon at 0.3 nM and in the presence of compound for 2 hours at room temperature in a total reaction volume of 40 μL per well. Assay buffer consisted of 50 mM HEPES, pH 7.4, 5 mM MgCl2, 1 mM CaCl2 and 0.2% BSA. 30 μL of the reaction was then transferred to PEI treated filter plates and followed by filter aspiration. Plates were then washed 5x and allowed to dry at room temperature overnight. The next day the bottom of the plate was covered with seal tape and scintillant was added. Total counts retained by the filters were quantified with a Top Count instrument.

Sequence of Glucagon receptor (P47871 whole entry): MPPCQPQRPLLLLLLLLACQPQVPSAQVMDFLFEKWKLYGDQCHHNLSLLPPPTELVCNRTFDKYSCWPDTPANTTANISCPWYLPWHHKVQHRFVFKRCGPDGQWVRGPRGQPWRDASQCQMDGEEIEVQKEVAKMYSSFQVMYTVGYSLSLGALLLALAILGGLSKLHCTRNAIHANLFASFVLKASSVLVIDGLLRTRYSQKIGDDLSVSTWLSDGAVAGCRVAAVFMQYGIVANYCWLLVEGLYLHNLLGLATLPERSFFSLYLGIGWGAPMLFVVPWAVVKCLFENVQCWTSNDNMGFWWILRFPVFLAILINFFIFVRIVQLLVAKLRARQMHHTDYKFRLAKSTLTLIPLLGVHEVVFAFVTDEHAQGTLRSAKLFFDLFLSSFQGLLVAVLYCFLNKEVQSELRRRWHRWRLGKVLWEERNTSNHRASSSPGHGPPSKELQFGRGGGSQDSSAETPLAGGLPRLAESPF

Ki: 47 nM
SMILES: O=C(O)CCNC(=O)c1ccc(-c2cc(C(F)(F)F)ccc2CNc2ccc(-c3ccc(Cl)cc3C(F)(F)F)cc2)cn1
